The text below walks through data of publication PMC6944710, “In vitro and in silico insights into tyrosinase inhibitors with (E)-benzylidene-1-indanone derivatives” (Computational and Structural Biotechnology Journal, 2019).

Entries after “also recorded” stand apart in the source; their conditions may differ. Where two headings read alike, the source gives them in different places. Bounds are passed on as bounds.

The target of data set [1] is mushroom tyrosinase. Briefly: Mushroom tyrosinase inhibitory assay (L-tyrosine or L-DOPA as substrate). Format: biochemical, Agaricus bisporus. The settings on record: for IC50: mean ± SEM of triplicate experiments; for Inhibitory effect at the concentration of 200 µM / Tyrosinase inhibitory activity (in words): mushroom tyrosinase; for Tyrosinase inhibitory activity (in words): L-tyrosine and L-DOPA. On the procedure: Tyrosinase inhibitory activity assay was performed using mushroom tyrosinase as described previously, with minor modification, [36]. […] […] The reaction mixtures were incubated at 37 °C for 30 min. After that, the amount of dopachrome produced in each well was measured by spectrophotometric analysis at 492 nm (OD492) using a microplate reader.

The subject of data set [2] is tyrosinase. The settings on record: cited from earlier work.
Data set [3] has as its system B16F10 melanoma cells. In words: Cell viability assay (EZ-Cytox). The data set is classed as cell-based, Murine. Particulars: 1–20 µM, 24 h and 48 h. On the procedure:
Murine melanoma B16F10 cells were purchased from the Korean Cell Line Bank (KCLB, Seoul, Korea) and cultured in DMEM supplemented with 10% FBS and 1% streptomycin, and then incubated at 37 °C, humidified with 5% atmospheric CO2. Cell viability analyses were performed as previously described. Briefly, cells seeded at a density of 1 × 10^4 cells/well in a 96-well plate for 24 h. On the following day, the cells were exposed to different concentrations of BID3 and incubated for 24 or 48 h, respectively. Then, 10 µL EZ-Cytox solution was added to each well and the cells were incubated for 2–4 h. Absorbance was determined using ELISA at a wavelength of 450 nm. Each assay was performed in triplicate.

Data set [4] has as its system B16F10 melanoma cells. In words: Melanin contents assay in α-MSH and IBMX-stimulated cells. Format: cell-based, Murine. Particulars: BID3 1, 5, and 20 µM (methods: 1, 5, and 10 µM), 48 h. On the procedure:
Melanin content was determined as described previously. B16F10 melanoma cells (2 × 10^5 cells/well) were seeded in 6-well culture plates. […] After washed twice with PBS, the cells were detached by incubation in Trypsin/EDTA, and the pellets were dissolved in 100 µL of 1 N NaOH, and then incubated at 60 °C for 1 h and mixed to solubilize the melanin. The melanin contents were determined by measuring absorbance at 405 nm by using the ELISA reader (TECAN, Sunrise, Austria). The melanin content was calculated using the following equation: (Δsample/Δcontrol) × 100%. All determinations were performed in triplicate.

The target in data set [5] is mushroom tyrosinase. Briefly: Enzyme kinetic analysis with tyrosinase (Lineweaver-Burk and Dixon plots). The data set is classed as biochemical, Agaricus bisporus. The settings on record: L-DOPA as substrate. On the procedure: To determine the kinetic mechanisms of inhibition, two complimentary kinetics methods were used: Lineweaver–Burk and Dixon plots, [38], [39]. Using Lineweaver-Burk plots (double reciprocal plots), the inhibition type of BID3 was determined using various concentrations of L-DOPA (0.125, 0.25, 0.5, and 1 mM), as substrates, in the absence and presence of various concentrations of BID3 (1, 2, and 4 μM). A Dixon plot (single reciprocal plots) for tyrosinase inhibition was obtained in the presence of various concentrations of L-DOPA (0.125, 0.25, 0.5, and 1 mM). The concentrations of BID3 were 1, 2, and 4 µM. The enzymatic procedures consisted of the previously described tyrosinase assay methods. The inhibition constant (Ki) was determined from the interpretation of Dixon plots.

The target of data set [6] is T1, cellular tyrosinase of B16F10 cells (Mus musculus, UniProt P11344).
T1 construct: endogenous in cells; host or cells: B16F10 melanoma cells
T1 sequence (P11344 19-533): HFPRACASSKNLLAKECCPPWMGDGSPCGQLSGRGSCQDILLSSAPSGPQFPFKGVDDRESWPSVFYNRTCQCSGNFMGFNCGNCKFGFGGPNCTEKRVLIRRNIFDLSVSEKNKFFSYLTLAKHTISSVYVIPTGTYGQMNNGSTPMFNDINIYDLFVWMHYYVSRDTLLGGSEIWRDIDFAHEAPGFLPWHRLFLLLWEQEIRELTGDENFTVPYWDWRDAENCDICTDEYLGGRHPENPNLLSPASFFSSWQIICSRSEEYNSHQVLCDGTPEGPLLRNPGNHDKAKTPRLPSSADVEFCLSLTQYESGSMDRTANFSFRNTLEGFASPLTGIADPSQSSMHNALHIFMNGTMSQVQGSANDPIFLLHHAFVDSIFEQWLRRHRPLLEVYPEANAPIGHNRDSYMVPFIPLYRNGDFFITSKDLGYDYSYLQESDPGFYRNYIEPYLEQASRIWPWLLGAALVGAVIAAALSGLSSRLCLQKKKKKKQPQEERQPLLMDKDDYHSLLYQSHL
Briefly: Cellular tyrosinase activity in α-MSH and IBMX-stimulated cells. The data set is classed as cell-based, Murine. Particulars: BID3 1, 5, and 20 µM (methods: 1, 5, and 10 µM), 48 h. On the procedure:
Cellular tyrosinase activity was assessed as described previously, with slight modifications, [45]. Briefly, 2 × 10^5/cells were plated in 6-well dishes and incubated overnight. […] After being rinsed twice with PBS, the cells were lysed with 100 µL lysis solution containing 50 mM phosphate buffer (pH 6.5), 0.1 mM phenylmethylsulfonylfluoride (PMSF), and 1% Triton X-100 and frozen at −80 °C for 30 min. Lysates were thawed and centrifuged at 12,000 rpm for 30 min at 4 °C. […] After incubation at 37 °C for 30 min, the optical density at 492 nm was measured using an ELISA reader (TECAN, Salzburg, Austria). The protein concentration was determined using BCA protein assay reagent using […] (Thermo Scientific, Rockford, IL, USA).

[7] abbreviates: L-DOPA substrate, read-out: IC50 (μM), L-DOPA as substrate (diphenolase activity).
Setting [8] is: L-tyrosine substrate, read-out: IC50 (μM), L-tyrosine as substrate (monophenolase activity).

On to `O=C1/C(=C/c2ccc(O)c(Br)c2)Cc2ccccc21` [BID12, (E)-2-(3-Bromo-4-hydroxybenzylidene)-2,3-dihydro-1H-inden-1-one], for which the melting point (commonly the temperature of the solid-liquid transition) is 225 to 226.2 °C. The IC50 (in general, the concentration that inhibits the measured activity by half) in data set [1] (setting [7]) is above 200 µM. The concentration for half-maximal inhibition (IC50) in data set [1] (setting [8]) was above 200 µM.
Regarding `COc1ccc(/C=C2\Cc3ccccc3C2=O)cc1` [BID7, (E)-2-(4-Methoxybenzylidene)-2,3-dihydro-1H-inden-1-one], the IC50 in data set [1] (setting [7]) and in data set [1] (setting [8]) was above 200 µM in each case.
With `O=C(O)/C=C/c1ccccc1` [Cinnamic acid, trans-cinnamic acid, reference compound], in data set [2], the “Reported type of tyrosinase inhibition” value is on record as “mixed-mode tyrosinase inhibitor”. The “Inhibitory effect at the concentration of 200 µM” value in data set [1] was “no inhibitory effect”. In addition, the IC50 in data set [1] (setting [7]) and in data set [1] (setting [8]) was above 200 µM in each case.
In turn, `COc1cc(/C=C2\Cc3ccccc3C2=O)cc(OC)c1O` [BID11, (E)-2-(4-Hydroxy-3,5-dimethoxybenzylidene)-2,3-dihydro-1H-inden-1-one] showed a melting point of 190.2 to 191.1 °C. Also, the half-maximal inhibitory concentration (IC50) in data set [1] (setting [7]) is above 200 µM. Moreover, in data set [1] (setting [8]), the IC50 amounted to 75.2 ± 2.24 µM. Moreover, the “Tyrosinase inhibitory activity (in words)” value in data set [1] is on record as “moderate tyrosinase inhibitory activity”.
For the compound `O=C1/C(=C/c2cc(Br)c(O)c(Br)c2)Cc2ccccc21` [BID13, (E)-2-(3,5-Dibromo-4-hydroxybenzylidene)-2,3-dihydro-1H-inden-1-one], the melting point was 267.4 to 268.1 °C. Besides, the half-inhibitory concentration (IC50) in data set [1] (setting [7]) is 75.3 ± 7.94 µM. In addition, in data set [1] (setting [8]), the half-maximal inhibitory concentration (IC50) is above 200 µM.
As to `COc1cc(/C=C2\Cc3ccccc3C2=O)ccc1O` [BID4, (E)-2-(4-Hydroxy-3-methoxybenzylidene)-2,3-dihydro-1H-inden-1-one], the half-inhibitory concentration (IC50) in data set [1] (setting [7]) is above 200 µM; in data set [1] (setting [8]), 73.5 ± 5.78 µM. The “Tyrosinase inhibitory activity (in words)” value in data set [1] is given as “moderate tyrosinase inhibitory activity”.
As to `COc1cc(/C=C2\Cc3ccccc3C2=O)cc(OC)c1OC` [BID10, (E)-2-(3,4,5-Trimethoxybenzylidene)-2,3-dihydro-1H-inden-1-one], the melting point was 164.4 to 165.2 °C. In data set [1] (setting [7]), the 50% inhibitory concentration (IC50) is above 200 µM. Moreover, the IC50 in data set [1] (setting [8]) is above 200 µM.
Take `O=C1/C(=C/c2ccc(O)c(O)c2)Cc2ccccc21` [BID2, (E)-2-(3,4-Dihydroxybenzylidene)-2,3-dihydro-1H-inden-1-one]: the IC50 in data set [1] (setting [7]) was determined as 52.9 ± 2.62 µM; in data set [1] (setting [8]) it was 41.3 ± 3.03 µM.
Consider `CCOc1cc(/C=C2\Cc3ccccc3C2=O)ccc1O` [BID5, (E)-2-(3-Ethoxy-4-hydroxybenzylidene)-2,3-dihydro-1H-inden-1-one], for which the melting point was in the range of 135.8 to 136.4 °C. Further, in data set [1] (setting [7]), the 50% inhibitory concentration (IC50) is above 200 µM. Also, the half-maximal inhibitory concentration (IC50) in data set [1] (setting [8]) was above 200 µM.
The compound `COc1ccc(/C=C2\Cc3ccccc3C2=O)cc1OC` [BID8, (E)-2-(3,4-Dimethoxybenzylidene)-2,3-dihydro-1H-inden-1-one] yielded a melting point of 176.5 to 177.2 °C. For the same compound, in data set [1] (setting [7]), the IC50 was above 200 µM. In data set [1] (setting [8]), the half-maximal inhibitory concentration (IC50) was above 200 µM.
Consider `O=c1cc(CO)occ1O` [Kojic acid, kojic acid], for which the “Reported type of tyrosinase inhibition” value in data set [2] is “competitive type inhibitor”.
On to `O=C(O)c1ccccc1C(=O)O` [Phthalic acid, phthalic acid, reference compound], for which, in data set [2], the “Reported type of tyrosinase inhibition” value is “mixed-mode tyrosinase inhibitor”. The “Inhibitory effect at the concentration of 200 µM” value in data set [1] is reported as “no inhibitory effect”. Further, the IC50 in data set [1] (setting [7]) and in data set [1] (setting [8]) was above 200 µM in each case.
As to `COc1ccc(/C=C2\Cc3ccccc3C2=O)cc1O` [BID6, (E)-2-(3-Hydroxy-4-methoxybenzylidene)-2,3-dihydro-1H-inden-1-one], the results for the half-inhibitory concentration (IC50) in data set [1] (setting [7]) and in data set [1] (setting [8]) were 50.8 ± 2.16 µM and 5 ± 0.91 µM, respectively.
The like results for `O=C1/C(=C/c2ccc(O)cc2)Cc2ccccc21` [BID1, (E)-2-(4-Hydroxybenzylidene)-2,3-dihydro-1H-inden-1-one] were, in that order, 130 ± 5.39 µM and 39.7 ± 3.71 µM.
Take `O=C1/C(=C/c2ccc(O)cc2O)Cc2ccccc21` [BID3, (E)-2-(2,4-Dihydroxybenzylidene)-2,3-dihydro-1H-inden-1-one]: in data set [3], the “Cytotoxic effect on B16F10 cells” value is “no significant cytotoxic effect; also recorded: without inducing cytotoxicity”. The Melanin contents result in data set [4] is on record as “decreased; also recorded: concentration dependently decrease”. In data set [5] (Dixon plot), affinity was put at a Ki of 2.4 µM. Besides, the “Type of tyrosinase inhibition” value in data set [5] (Lineweaver-Burk and Dixon plots) was “mixed-type inhibition; also recorded: mixed-type inhibitor”. Further, the Cellular tyrosinase activity entry in data set [6] is “inhibited; also recorded: concentration dependently decrease”. Further, the results for the IC50 in data set [1] (setting [7]) and in data set [1] (setting [8]) were 1.39 ± 4e-05 µM and 0.034 ± 0.00224 µM, respectively.
On to `COc1ccc(/C=C2\Cc3ccccc3C2=O)c(OC)c1` [BID9, (E)-2-(2,4-Dimethoxybenzylidene)-2,3-dihydro-1H-inden-1-one], for which the concentration for half-maximal inhibition (IC50) is 96.9 ± 9.78 µM in data set [1] (setting [7]) and above 200 µM in data set [1] (setting [8]).
